Publication PMC5218480 (PLoS ONE, 2017)

System: MV-4-11 cells
Assay: Gene expression microarray analysis (Affymetrix PrimeView) and GSEA
Type: cell-based, human
Parameters: RFU PODN (11730768_x_at) / Fold change /veh PODN (11730768_x_at) / RFU LINC00158 (11744669_a_at) / Fold change /veh LINC00158 (11744669_a_at) / RFU DUSP10 (11751237_a_at) / Fold change /veh DUSP10 (11751237_a_at) / RFU ID3 (11757404_x_at) / Fold change /veh ID3 (11757404_x_at) / RFU PLEKHG5 (11737974_s_at) / Fold change /veh PLEKHG5 (11737974_s_at) / RFU LRRC4B (11730491_at) / Fold change /veh LRRC4B (11730491_at) / RFU GIMAP4 (11747438_a_at) / Fold change /veh GIMAP4 (11747438_a_at) / RFU KRT8 (11758183_x_at) / Fold change /veh KRT8 (11758183_x_at) / RFU CNN1 (11734310_a_at) / Fold change /veh CNN1 (11734310_a_at) / RFU VPS37D (11726825_at) / Fold change /veh VPS37D (11726825_at) / RFU C10orf10 (11716522_x_at) / Fold change /veh C10orf10 (11716522_x_at) / RFU KIR2DL2 /// KIR2DL4 /// KIR2DL5A /// KIR2DL5B /// KIR2DS1 /// KIR2DS2 /// KIR2DS3 /// KIR2DS4 /// KIR3DL3 /// KIR3DL3 /// KIR3DS1 (11738374_at) / Fold change /veh KIR2DL2 /// KIR2DL4 /// KIR2DL5A /// KIR2DL5B /// KIR2DS1 /// KIR2DS2 /// KIR2DS3 /// KIR2DS4 /// KIR3DL3 /// KIR3DL3 /// KIR3DS1 (11738374_at) / RFU C1QL1 (11718748_at) / Fold change /veh C1QL1 (11718748_at) / RFU TMPRSS4 (11747572_a_at) / Fold change /veh TMPRSS4 (11747572_a_at) / RFU HAMP (11756126_x_at) / Fold change /veh HAMP (11756126_x_at) / RFU RNFT2 (11725882_a_at) / Fold change /veh RNFT2 (11725882_a_at) / RFU NR4A2 (11747474_a_at) / Fold change /veh NR4A2 (11747474_a_at) / RFU ABCC12 (11746883_a_at) / Fold change /veh ABCC12 (11746883_a_at) / RFU TMEM136 (11760407_x_at) / Fold change /veh TMEM136 (11760407_x_at) / RFU CLDN22 /// WWC2 (11732394_at) / Fold change /veh CLDN22 /// WWC2 (11732394_at) / RFU HLA-DPB1 (11760878_x_at) / Fold change /veh HLA-DPB1 (11760878_x_at) / RFU SPINT1 (11716480_a_at) / Fold change /veh SPINT1 (11716480_a_at) / RFU GAP43 (11754022_s_at) / Fold change /veh GAP43 (11754022_s_at) / RFU A4GNT (11735810_at) / Fold change /veh A4GNT (11735810_at) / RFU PRB3 (11715151_x_at) / Fold change /veh PRB3 (11715151_x_at) / RFU TUBB4B (11761932_at) / Fold change /veh TUBB4B (11761932_at) / RFU CAPN14 (11732068_a_at) / Fold change /veh CAPN14 (11732068_a_at) / RFU TMCC2 (11721928_a_at) / Fold change /veh TMCC2 (11721928_a_at) / RFU IRGQ (11745062_a_at) / Fold change /veh IRGQ (11745062_a_at) / RFU FAM174B (11720279_a_at) / Fold change /veh FAM174B (11720279_a_at) / RFU TMPRSS4 (11748680_a_at) / Fold change /veh TMPRSS4 (11748680_a_at) / RFU FAM212B (11763350_a_at) / Fold change /veh FAM212B (11763350_a_at) / RFU PLEKHG5 (11743358_a_at) / Fold change /veh PLEKHG5 (11743358_a_at) / RFU ZSCAN30 (11745921_a_at) / Fold change /veh ZSCAN30 (11745921_a_at) / RFU CMKLR1 (11741424_a_at) / Fold change /veh CMKLR1 (11741424_a_at) / RFU LOC101060620 /// MAPK8IP1 (11723275_at) / Fold change /veh LOC101060620 /// MAPK8IP1 (11723275_at) / RFU SPTSSB (11747773_x_at) / Fold change /veh SPTSSB (11747773_x_at) / RFU PRSS12 (11739890_at) / Fold change /veh PRSS12 (11739890_at) / RFU BIN1 (11741810_x_at) / Fold change /veh BIN1 (11741810_x_at) / RFU WNT11 (11732464_a_at) / Fold change /veh WNT11 (11732464_a_at) / RFU C10orf10 (11716521_a_at) / Fold change /veh C10orf10 (11716521_a_at) / RFU C5orf56 (11738089_at) / Fold change /veh C5orf56 (11738089_at) / RFU CYB561 (11721691_x_at) / Fold change /veh CYB561 (11721691_x_at) / RFU ANKRD19P (11752326_a_at) / Fold change /veh ANKRD19P (11752326_a_at) / RFU OR2T12 /// OR2T33 /// OR2T8 (11738714_s_at) / Fold change /veh OR2T12 /// OR2T33 /// OR2T8 (11738714_s_at) / RFU VCAN (11748164_a_at) / Fold change /veh VCAN (11748164_a_at) / RFU JSRP1 (11732532_at) / Fold change /veh JSRP1 (11732532_at) / RFU KRTAP10-11 (11738290_x_at) / Fold change /veh KRTAP10-11 (11738290_x_at) / RFU MYO3A (11730013_a_at) / Fold change /veh MYO3A (11730013_a_at) / RFU EBF3 (11725865_a_at) / Fold change /veh EBF3 (11725865_a_at) / RFU CAMK2N1 (11719241_x_at) / Fold change /veh CAMK2N1 (11719241_x_at) / RFU C5orf56 (11738088_a_at) / Fold change /veh C5orf56 (11738088_a_at) / RFU OLFML3 (11715873_a_at) / Fold change /veh OLFML3 (11715873_a_at) / RFU LOC100653217 /// NTM (11731650_a_at) / Fold change /veh LOC100653217 /// NTM (11731650_a_at) / RFU MAPK11 (11762145_a_at) / Fold change /veh MAPK11 (11762145_a_at) / RFU FIZ1 (11724087_x_at) / Fold change /veh FIZ1 (11724087_x_at) / RFU OASL (11726364_x_at) / Fold change /veh OASL (11726364_x_at) / RFU SOX15 (11748057_x_at) / Fold change /veh SOX15 (11748057_x_at) / RFU CD79A (11719716_a_at) / Fold change /veh CD79A (11719716_a_at) / RFU HIST1H1D (11736915_at) / Fold change /veh HIST1H1D (11736915_at) / RFU CASKIN2 (11723855_a_at) / Fold change /veh CASKIN2 (11723855_a_at) / RFU LOC730098 (11760151_x_at) / Fold change /veh LOC730098 (11760151_x_at) / RFU OR4N2 (11742367_at) / Fold change /veh OR4N2 (11742367_at) / RFU PRRT2 (11749266_a_at) / Fold change /veh PRRT2 (11749266_a_at) / RFU SNX32 (11753110_a_at) / Fold change /veh SNX32 (11753110_a_at) / RFU CDHR5 (11726645_a_at) / Fold change /veh CDHR5 (11726645_a_at) / RFU RCAN1 (11760418_a_at) / Fold change /veh RCAN1 (11760418_a_at) / RFU FAM167A (11723789_a_at) / Fold change /veh FAM167A (11723789_a_at) / RFU FAM26E (11764081_at) / Fold change /veh FAM26E (11764081_at) / RFU ISYNA1 (11749810_s_at) / Fold change /veh ISYNA1 (11749810_s_at) / RFU ACY1 (11761880_at) / Fold change /veh ACY1 (11761880_at) / RFU 11764098_at / Fold change /veh 11764098_at / RFU SAMD14 (11745864_x_at) / Fold change /veh SAMD14 (11745864_x_at) / RFU NPB (11741838_a_at) / Fold change /veh NPB (11741838_a_at) / RFU TMPRSS6 (11731388_a_at) / Fold change /veh TMPRSS6 (11731388_a_at) / RFU KRTAP10-2 (11738614_at) / Fold change /veh KRTAP10-2 (11738614_at) / RFU ARHGAP8 /// PRR5-ARHGAP8 (11727945_x_at) / Fold change /veh ARHGAP8 /// PRR5-ARHGAP8 (11727945_x_at) / RFU KRTAP5-7 /// NADSYN1 (11734609_at) / Fold change /veh KRTAP5-7 /// NADSYN1 (11734609_at) / RFU RASL12 (11751679_a_at) / Fold change /veh RASL12 (11751679_a_at) / RFU CDKN2B (11736163_a_at) / Fold change /veh CDKN2B (11736163_a_at) / RFU PRF1 (11729649_at) / Fold change /veh PRF1 (11729649_at) / RFU, ZNF638 /// ZNF638-IT1 / Fold change vs veh, ZNF638 /// ZNF638-IT1 / RFU, PANK3 / Fold change vs veh, PANK3 / RFU, SH3YL1 / Fold change vs veh, SH3YL1 / RFU, ZEB2 / Fold change vs veh, ZEB2 / RFU, NRIP1 / Fold change vs veh, NRIP1 / RFU, PTTG1IP / Fold change vs veh, PTTG1IP / RFU, CAPN2 / Fold change vs veh, CAPN2 / RFU, MED14 / Fold change vs veh, MED14 / RFU, SNORA58 / Fold change vs veh, SNORA58 / RFU, C1orf63 / Fold change vs veh, C1orf63 / RFU, LRRFIP1 / Fold change vs veh, LRRFIP1 / RFU, NDUFAF7 / Fold change vs veh, NDUFAF7 / RFU, SLC12A2 / Fold change vs veh, SLC12A2 / RFU, IBTK / Fold change vs veh, IBTK / RFU, ESF1 / Fold change vs veh, ESF1 / Fold change vs veh, TMEM50B / RFU, TAOK1 / Fold change vs veh, TAOK1 / RFU, ACBD3 / Fold change vs veh, ACBD3 / RFU, TMA16 / Fold change vs veh, TMA16 / RFU, RWDD3 / Fold change vs veh, RWDD3 / RFU, BCAT1 / Fold change vs veh, BCAT1 / RFU, EDEM3 / Fold change vs veh, EDEM3 / RFU, TMEM33 / Fold change vs veh, TMEM33 / RFU, WDR75 / Fold change vs veh, WDR75 / RFU, AHCTF1 / Fold change vs veh, AHCTF1 / RFU, TFRC / Fold change vs veh, TFRC / RFU, ZDHHC17 / Fold change vs veh, ZDHHC17 / RFU, NOM1 / Fold change vs veh, NOM1 / RFU, ARL8B / Fold change vs veh, ARL8B / RFU, ZBTB11 / Fold change vs veh, ZBTB11 / RFU, TAMM41 / Fold change vs veh, TAMM41 / RFU, KIAA1704 /// LOC100996395 / Fold change vs veh, KIAA1704 /// LOC100996395 / RFU, ING1 / Fold change vs veh, ING1 / RFU, TRMT61B / Fold change vs veh, TRMT61B / RFU, FUBP3 / Fold change vs veh, FUBP3 / RFU, TP53 / Fold change vs veh, TP53 / RFU, TNKS2 / Fold change vs veh, TNKS2 / RFU, ZFP14 / Fold change vs veh, ZFP14 / RFU, ACTR2 / Fold change vs veh, ACTR2 / RFU, PPP3R1 / Fold change vs veh, PPP3R1 / RFU, PIK3R1 / Fold change vs veh, PIK3R1 / RFU, HNRNPA1 / Fold change vs veh, HNRNPA1 / RFU, RNF170 / Fold change vs veh, RNF170 / RFU, ZNF28 / Fold change vs veh, ZNF28 / RFU, RNGTT / Fold change vs veh, RNGTT / RFU, OGT / Fold change vs veh, OGT / RFU, BRD1 / Fold change vs veh, BRD1 / RFU, MARS / Fold change vs veh, MARS / RFU, ZNF655 / Fold change vs veh, ZNF655 / RFU, FAHD1 / Fold change vs veh, FAHD1 / RFU, BDP1 / Fold change vs veh, BDP1 / RFU, LRRCC1 / Fold change vs veh, LRRCC1 / RFU, ARID1A / Fold change vs veh, ARID1A / RFU, ZNF146 / Fold change vs veh, ZNF146 / RFU, ZNF330 / Fold change vs veh, ZNF330 / RFU, GPN3 / Fold change vs veh, GPN3 / RFU, C9orf123 / Fold change vs veh, C9orf123 / RFU, N4BP2L2 / Fold change vs veh, N4BP2L2 / RFU, ARFIP1 / Fold change vs veh, ARFIP1 / RFU, FAM179B / Fold change vs veh, FAM179B / RFU, BCL10 / Fold change vs veh, BCL10 / RFU, UHRF1BP1L / Fold change vs veh, UHRF1BP1L / RFU, BET1 / Fold change vs veh, BET1 / RFU, CNOT2 / Fold change vs veh, CNOT2 / RFU, ZNF268 / Fold change vs veh, ZNF268 / Fold change vs veh, ZNF507 / RFU, DGCR2 / Fold change vs veh, DGCR2 / RFU, WDSUB1 / Fold change vs veh, WDSUB1 / Fold change vs veh, HSP90B1 /// MIR3652 / RFU, ADSS / Fold change vs veh, ADSS / RFU, GK / Fold change vs veh, GK / RFU, ZNF148 / Fold change vs veh, ZNF148 / RFU, TAF9 / Fold change vs veh, TAF9 / RFU, SLC1A5 / Fold change vs veh, SLC1A5 / RFU, SLMO2 / Fold change vs veh, SLMO2 / RFU, ABCC4 / Fold change vs veh, ABCC4 / RFU, LOC101060439 /// RAP1B / Fold change vs veh, LOC101060439 /// RAP1B / RFU, RFX7 / Fold change vs veh, RFX7 / RFU, GTPBP10 / Fold change vs veh, GTPBP10 / RFU, CNEP1R1 / Fold change vs veh, CNEP1R1 / RFU, BIVM-ERCC5 /// ERCC5 / Fold change vs veh, BIVM-ERCC5 /// ERCC5 / RFU, ILF3 / Fold change vs veh, ILF3 / RFU 11762660_at / Fold change /veh 11762660_at / RFU VCAN (11757783_s_at) / Fold change /veh VCAN (11757783_s_at) / RFU DDX43 (11728927_at) / Fold change /veh DDX43 (11728927_at) / RFU KRT8 (11758188_x_at) / Fold change /veh KRT8 (11758188_x_at) / RFU NKD1 (11759106_at) / Fold change /veh NKD1 (11759106_at) / RFU SRD5A1 (11742802_a_at) / Fold change /veh SRD5A1 (11742802_a_at) / RFU TPSAB1 /// TPSB2 (11721975_s_at) / Fold change /veh TPSAB1 /// TPSB2 (11721975_s_at) / RFU GSTM3 (11746129_a_at) / Fold change /veh GSTM3 (11746129_a_at) / RFU IL23R (11737362_x_at) / Fold change /veh IL23R (11737362_x_at) / RFU TMEM51 (11727254_a_at) / Fold change /veh TMEM51 (11727254_a_at) / RFU PIWIL2 (11732686_x_at) / Fold change /veh PIWIL2 (11732686_x_at) / RFU ORM1 (11744905_x_at) / Fold change /veh ORM1 (11744905_x_at) / RFU CCDC152 (11743942_at) / Fold change /veh CCDC152 (11743942_at) / RFU ECM1 (11717891_a_at) / Fold change /veh ECM1 (11717891_a_at) / RFU IL23R (11748794_a_at) / Fold change /veh IL23R (11748794_a_at) / RFU TNFAIP8L3 (11732012_x_at) / Fold change /veh TNFAIP8L3 (11732012_x_at) / RFU MBOAT4 (11741988_at) / Fold change /veh MBOAT4 (11741988_at) / RFU 11764193_at / Fold change /veh 11764193_at / RFU TMEM53 (11763286_at) / Fold change /veh TMEM53 (11763286_at) / RFU MAGEB2 (11727129_at) / Fold change /veh MAGEB2 (11727129_at) / RFU TMEM200A (11744735_a_at) / Fold change /veh TMEM200A (11744735_a_at) / RFU CCDC152 (11751479_a_at) / Fold change /veh CCDC152 (11751479_a_at) / RFU FAM211A (11726209_a_at) / Fold change /veh FAM211A (11726209_a_at) / RFU RGS16 (11746705_a_at) / Fold change /veh RGS16 (11746705_a_at) / RFU VCAN (11755009_s_at) / Fold change /veh VCAN (11755009_s_at) / RFU RHOB (11743442_s_at) / Fold change /veh RHOB (11743442_s_at) / RFU RGS16 (11720943_a_at) / Fold change /veh RGS16 (11720943_a_at) / RFU RGS16 (11720944_at) / Fold change /veh RGS16 (11720944_at) / RFU, VPS4B / Fold change vs veh, VPS4B / RFU, CREB1 / Fold change vs veh, CREB1 / RFU, DNAJC13 / Fold change vs veh, DNAJC13 / RFU, GNAQ / Fold change vs veh, GNAQ / RFU, CDK5R1 / Fold change vs veh, CDK5R1 / RFU, ZRANB3 / Fold change vs veh, ZRANB3 / RFU, CUL4A / Fold change vs veh, CUL4A / RFU, CCNY / Fold change vs veh, CCNY / RFU, UFL1 / Fold change vs veh, UFL1 / RFU, COG3 / Fold change vs veh, COG3 / RFU, DIAPH2 / Fold change vs veh, DIAPH2 / RFU, SKA2 / Fold change vs veh, SKA2 / RFU, AFF3 / Fold change vs veh, AFF3 / RFU, LMF1 / Fold change vs veh, LMF1 / RFU, IPO11 / Fold change vs veh, IPO11 / RFU, DFFB / Fold change vs veh, DFFB / RFU, FOXP1 / Fold change vs veh, FOXP1 / RFU, CARD8 / Fold change vs veh, CARD8 / RFU, STRN3 / Fold change vs veh, STRN3 / RFU, ADK / Fold change vs veh, ADK / RFU, RASSF2 / Fold change vs veh, RASSF2 / RFU, WIPF1 / Fold change vs veh, WIPF1 / RFU, LARP1B / Fold change vs veh, LARP1B / RFU, RASA1 / Fold change vs veh, RASA1 / RFU, RB1 / Fold change vs veh, RB1 / RFU, PPFIA1 / Fold change vs veh, PPFIA1 / RFU, MAT2A / Fold change vs veh, MAT2A / RFU, CCT5 / Fold change vs veh, CCT5 / RFU, WDR92 / Fold change vs veh, WDR92 / RFU, CUX1 / Fold change vs veh, CUX1 / RFU, TTC7A / Fold change vs veh, TTC7A / RFU, TMEM135 / Fold change vs veh, TMEM135 / RFU, DEPTOR / Fold change vs veh, DEPTOR / RFU, CPM / Fold change vs veh, CPM / RFU, DNAJB6 / Fold change vs veh, DNAJB6 / RFU, CACNA2D3 / Fold change vs veh, CACNA2D3 / RFU, DTX4 / Fold change vs veh, DTX4 / RFU, TFCP2 / Fold change vs veh, TFCP2 / RFU, GMCL1 /// GMCL1P1 / Fold change vs veh, GMCL1 /// GMCL1P1 / RFU, AEBP2 / Fold change vs veh, AEBP2 / RFU, SNHG1 /// SNORD22 /// SNORD25 /// SNORD26 /// SNORD27 /// SNORD28 /// SNORD29 /// SNORD31 / Fold change vs veh, SNHG1 /// SNORD22 /// SNORD25 /// SNORD26 /// SNORD27 /// SNORD28 /// SNORD29 /// SNORD31 / Fold change (Aza/veh), C12orf56 (ProbeSet 11735607_a_at) / Fold change (ACY-1035/veh), C12orf56 (ProbeSet 11735607_a_at) / Fold change (Aza/veh), FGFR1OP (ProbeSet 11751329_s_at) / Fold change (ACY-1035/veh), FGFR1OP (ProbeSet 11751329_s_at) / Fold change (Aza/veh), VPS36 (ProbeSet 11739960_a_at) / Fold change (ACY-1035/veh), VPS36 (ProbeSet 11739960_a_at) / RFU SYPL1 (11715823_x_at) / Fold change /veh SYPL1 (11715823_x_at) / RFU IGFBP7 (11715501_s_at) / Fold change /veh IGFBP7 (11715501_s_at) / RFU REEP3 (11722064_at) / Fold change /veh REEP3 (11722064_at) / RFU IGLL1 (11728026_x_at) / Fold change /veh IGLL1 (11728026_x_at): dose or concentration left out as unconfirmed
Conditions: MV-4-11 cells, 48 hours

`Nc1ncn([C@@H]2O[C@H](CO)[C@@H](O)[C@H]2O)c(=O)n1` [azacitidine] was tested, and the “Fold change /veh ACY1 (11761880_at)” value was 1.09.
